pIC50: −log10 of the molar value. Read-outs that look alike come from different tables or passages of the source.
How the values were obtained:
Format in all cases: cell-based
[1] = target: T1, pERK1/2 (Thr202/Tyr204), NCI-1H358 (KRAS G12C) (Homo sapiens, UniProt P01116, G12C); assay: Assay of intracellular pERK1/2 (Thr202/Tyr204) phosphorylation in NCI-H358 cells (KRAS G12C)
T1 construct: pERK1/2 HTRF read-out
Protocol: (§1) Example 2: Assay of intracellular pERK1/2 (Thr202/Tyr204)phosphorylation
(§2) 1. Reagents and materials: • pERK1/2 (Thr202/Tyr2O4) HIRE kit, Cisbio, Cat #64ERKPEH; • OptiPlate™-384-well plate, PerkinElmer, Cat #6007299; • 96-well plate, Coming, Cat #353072; • Instrument: EnVision2104, PerkinElmer; • Cell lines: NCI-1H358 (KRAS G12C), ATCC, CRL-5807; PANC-1 (KRAS G121D), ATCC, CRL-1469; NCI-1H441 (KRAS G12V), ATCC, HTB-174.
(§3) 2. Preparation of Reaction Solutions
(§4) • A test compound was dissolved in DMSO, diluted to 200.0 μM and further diluted 3-fold to prepare a series of test compounds at concentrations of 66.7, 22.2, 7.4, 2.5, 0.82, 0.27, 0.09 μM etc. Then 10 μL of the compound at different dilution concentrations was added to 190 μL of a DMEM medium to prepare a 10× test compound; • 1× cell lysis buffer: 4× cell lysis stock solution (provided by the kit) was diluted 4-fold with deionized water, and then 10% 100× blocking stock solution (provided by the kit) was added thereto. • pERK1/2 detection solution (prepared just before use): the pERK1/2 d2 antibody (provided by the kit) and pERK1/2 Cryptate antibody (provided by the kit) were diluted with the detection solution (provided by the kit) at a ratio of 1:1:38.
(§5) • Cells were inoculated into a 96-well plate (100 μL/well) at a density of 10000-12000/well. No cell was inoculated into a negative control well, and only the cell medium was added at 100 μL/well. The plate was placed in a cell incubator at 5% CO2 and 37° C. overnight. • 10 μL of the 10× test compound was added to the 100 μL cell culture 96-well plate; both the positive control well (that is, the control hole without chemical compound treatment) and the negative control well were charged with 10 μL of a 5% DMSO culture solution; and the plate was cultured in a cell incubator at 5% CO2 and 37° C. for 2 days. • The medium in the 96-well plate was removed; 50 μL of the 1× cell lysis buffer was added to each of the wells; the plate was placed in a microplate shaker; and lysis under shaking was carried out at 900 rpm at room temperature for 1 hour. • 16 μL of the lysis buffer in the 96-well plate was taken and transferred to a 384-well plate, followed by centrifugation at 1000 rpm for 30 s; then 4 μL of pERK1/2 detection solution was added to each well, followed by centrifugation at 1000 rpm for 30 s; and the 384-well plate was sealed with a sealing membrane and incubated at 25° C. on a low-speed shaker at 100 rpm in the dark for 2 hours. • The fluorescence value (RFU) of each well was detected on EnVision2104, with an emission wavelength 1 being 665 nm and an emission wavelength 2 being 615 nm.
(§6) Fluorescence ratio=fluorescence value665 nm/fluorescence value615 nm
(§7) Inhibition rate (%)=100−((fluorescence ratio of compound well−fluorescence ratio of negative control well)/(fluorescence ratio of positive control well−fluorescence ratio of negative control well))×100
(§8) wherein: • the fluorescence ratio of compound well refers to the fluorescence ratio of the well containing the test compounds; • the fluorescence ratio of negative control well refers to the fluorescence ratio of the cell-free control well; • the fluorescence ratio of positive control well refers to the fluorescence ratio of the cell well treated with 0.5% DMSO.
(§9) IC50 value: obtained by calculation using XL-Fit 5.0 software.

[2] = target: T2, pERK1/2 (Thr202/Tyr204), NCI-1H441 (KRAS G12V) (Homo sapiens, UniProt P01116, G12V); assay: Assay of intracellular pERK1/2 (Thr202/Tyr204) phosphorylation in NCI-H441 cells (KRAS G12V)
T2 construct: pERK1/2 HTRF read-out
Protocol: as §1, §2, §3, §4, §5, §6, §7, §8, §9

[3] = target: T3, pERK1/2 (Thr202/Tyr204), PANC-1 (KRAS G121D) (Homo sapiens, UniProt P01116, G12D); assay: Assay of intracellular pERK1/2 (Thr202/Tyr204) phosphorylation in PANC-1 cells (KRAS G12D)
T3 construct: pERK1/2 HTRF read-out
Protocol: as §1, §2, §3, §4, §5, §6, §7, §8, §9

[4] = pERK1/2, 2 days, read-out: NCI-H358 (KRAS G12C) IC50
[5] = pERK1/2, 2 days, read-out: NCI-H441 (KRAS G12V) IC50
[6] = pERK1/2, 2 days, read-out: PANC-1 (KRAS G12D) IC50

T1 sequence (P01116 1-188 isoform P01116-2 G12C): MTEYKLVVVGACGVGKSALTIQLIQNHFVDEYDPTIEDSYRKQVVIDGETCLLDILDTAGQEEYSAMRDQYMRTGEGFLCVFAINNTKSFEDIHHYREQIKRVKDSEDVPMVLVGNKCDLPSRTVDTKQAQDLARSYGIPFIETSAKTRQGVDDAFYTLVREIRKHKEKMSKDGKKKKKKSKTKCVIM
T3 sequence (P01116 1-188 isoform P01116-2 G12D): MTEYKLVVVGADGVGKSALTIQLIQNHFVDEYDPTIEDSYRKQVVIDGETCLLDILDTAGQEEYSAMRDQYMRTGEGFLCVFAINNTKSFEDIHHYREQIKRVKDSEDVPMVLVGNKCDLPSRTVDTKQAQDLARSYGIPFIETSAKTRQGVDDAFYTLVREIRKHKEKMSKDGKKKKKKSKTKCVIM
T2 sequence (P01116 1-188 isoform P01116-2 G12V): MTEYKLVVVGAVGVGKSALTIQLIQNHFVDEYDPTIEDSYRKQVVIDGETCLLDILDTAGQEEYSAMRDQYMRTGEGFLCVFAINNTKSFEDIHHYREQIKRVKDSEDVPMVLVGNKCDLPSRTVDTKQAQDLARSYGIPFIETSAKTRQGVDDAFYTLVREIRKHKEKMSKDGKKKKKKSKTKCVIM

Row | Structure (SMILES) | pIC50 [1, 4] | pIC50 [2, 5] | pIC50 [3, 6] | pIC50 ([1]; read-out: NCI-H358 (KRAS G12C) IC50, pERK1/2, 2 days) | pIC50 ([2]; read-out: NCI-H441 (KRAS G12V) IC50, pERK1/2, 2 days) | pIC50 ([3]; read-out: PANC-1 (KRAS G12D) IC50, pERK1/2, 2 days)
1 | CC(c1cccnc1N)N1CCOc2nc(-c3cc(O)cc4ccc(F)c(F)c34)c(F)c3nc(O)nc1c23 (stereo not drawn) [Compound 9] | < 6.00 | < 6.00 | < 6.00 | – | – | –
2 | CC(c1cccnc1N)N1CCOc2nc(-c3nc(N)cc4ccccc34)c(F)c3nc(OC[C@@H]4CCCN4C)nc1c23 (stereo partly drawn) [Compound 28, 1-(10-(1-(2-aminopyridin-3-yl)ethyl)-4-fluoro-2-(((S)-1-methylpyrrolidin-2-yl)methoxy)-9,10-dihydro-8H-7-oxa-1,3,6,10-tetraazacyclohepta[de]naphthalen-5-yl)isoquinolin-3-amine] | 6.35 | < 6.00 | < 6.00 | – | – | –
3 | [2H]C1([2H])Oc2nc(-c3cc(N)c(F)c(C)c3C(F)(F)F)c(F)c3nc(OC[C@@H]4C[C@@H](F)CN4C)nc(c23)N(C(C)c2cccnc2N)C1([2H])[2H] (single isomer, unassigned) [Compound 203, 3-((R or S)-1-(5-(5-amino-4-fluoro-3-methyl-2-(trifluoromethyl)phenyl)-4-fluoro-2-(((2S,4R)-4-fluoro-1-methylpyrrolidin-2-yl)methoxy)-8,9-dihydro-10H-7-oxa-1,3,6,10-tetraazacyclohepta[de]naphthalen-10-yl-8,8,9,9-d4)ethyl)pyridin-2-amine] | 7.06 | < 7.00 | < 7.00 | – | – | –
4 | CC(c1cccnc1N)N1CCOc2nc(-c3cc(O)cc(Cl)c3C3CC3)c(F)c3nc(OC[C@@H]4CCN4CC(F)F)nc1c23 (single isomer, unassigned) [Compound 21, 3-(10-((R or S)-1-(2-aminopyridin-3-yl)ethyl)-2-(((S)-1-(2,2-difluoroethyl)azetidin-2-yl)methoxy)-4-fluoro-9,10-dihydro-8H-7-oxa-1,3,6,10-tetraazacyclohepta[de]naphthalen-5-yl)-5-chloro-4-cyclopropylphenol] | 9.30 | 8.52 | 7.09 | – | – | –
5 | CCc1c(F)ccc2cc(OC(=O)N3CCC3)cc(-c3nc4c5c(nc(OC[C@@]67CCCN6C[C@H](F)C7)nc5c3F)N(C(C)c3cccnc3N)[C@@H](C)CO4)c12 (stereo partly drawn) [Compound 304] | – | – | – | 7.68 | 7.34 | 7.26
6 | Cc1cc(N)cc(-c2nc3c4c(nc(OC[C@@H]5CCCN5C)nc4c2F)N(C(C)c2cccnc2N)CCO3)c1C(F)(F)F (single isomer, unassigned) [Compound 77, 3-((R or S)-1-(5-(5-amino-3-methyl-2-(trifluoromethyl)phenyl)-4-fluoro-2-(((S)-1-methylpyrrolidin-2-yl)methoxy)-8,9-dihydro-10H-7-oxa-1,3,6,10-tetraazacyclohepta[de]naphthalen-10-yl)ethyl)pyridin-2-amine] | 7.42 | 7.43 | < 7.00 | – | – | –
7 | [2H]C1([2H])Oc2nc(-c3cc(N)c(F)c(Cl)c3C(F)(F)F)c(F)c3nc(OC[C@@H]4C[C@@H](F)CN4C)nc(c23)N(C(C)c2cccnc2N)C1([2H])[2H] (single isomer, unassigned) [Compound 208, 3-((R or S)-1-(5-(5-amino-3-chloro-4-fluoro-2-(trifluoromethyl)phenyl)-4-fluoro-2-(((2S,4R)-4-fluoro-1-methylpyrrolidin-2-yl)methoxy)-8,9-dihydro-10H-7-oxa-1,3,6,10-tetraazacyclohepta[de]naphthalen-10-yl-8,8,9,9-d4)ethyl)pyridin-2-amine] | 9.40 | 9.00 | 8.00 | – | – | –

The next lines start with results.

Row | pIC50 [1, 4] | pIC50 [2, 5] | pIC50 [3, 6] | Structure (SMILES) | pIC50 ([1]; read-out: NCI-H358 (KRAS G12C) IC50, pERK1/2, 2 days) | pIC50 ([2]; read-out: NCI-H441 (KRAS G12V) IC50, pERK1/2, 2 days) | pIC50 ([3]; read-out: PANC-1 (KRAS G12D) IC50, pERK1/2, 2 days)
8 | 7.85 | 7.40 | 7.46 | Cc1c(F)c(N)cc(-c2nc3c4c(nc(OC[C@@]56CCCN5C[C@H](F)C6)nc4c2F)N(C(C)c2cccnc2N)[C@@H](C)CO3)c1C(F)(F)F (single isomer, unassigned) [Compound 263, 3-((R or S)-1-((S)-5-(5-amino-4-fluoro-3-methyl-2-(trifluoromethyl)phenyl)-4-fluoro-2-(((2R,7aS)-2-fluorotetrahydro-1H-pyrrolizin-7a(5H)-yl)methoxy)-9-methyl-8,9-dihydro-10H-7-oxa-1,3,6,10-tetraazacyclohepta[de]naphthalen-10-yl)ethyl)pyridin-2-amine] | – | – | –
9 | 9.70 | 9.52 | 9.22 | CC(c1cccnc1N)N1c2nc(OC[C@@]34CCCN3C[C@H](F)C4)nc3c(F)c(-c4cc(N)c(F)c(Cl)c4C(F)(F)F)nc(c23)OC[C@@H]1C (single isomer, unassigned) [Compound 269, 3-((R or S)-1-((S)-5-(5-amino-3-chloro-4-fluoro-2-(trifluoromethyl)phenyl)-4-fluoro-2-(((2R,7aS)-2-fluorotetrahydro-1H-pyrrolizin-7a(5H)-yl)methoxy)-9-methyl-8,9-dihydro-10H-7-oxa-1,3,6,10-tetraazacyclohepta[de]naphthalen-10-yl)ethyl)pyridin-2-amine] | – | – | –
10 | 9.52 | 9.30 | 9.22 | Cc1cc2[nH]ncc2c(-c2nc3c4c(nc(OC[C@@]56CCCN5C[C@H](F)C6)nc4c2F)N(C(C)c2cc(Cl)cnc2N)[C@@H](C)CO3)c1C(F)(F)F (stereo partly drawn) [Compound 334, (*)5-Chloro-3-(1-((9S)-4-fluoro-2-(((2R,7aS)-2-fluorotetrahydro-1H-pyrrolizin-7a(5H)-yl)methoxy)-9-methyl-5-(6-methyl-5-(trifluoromethyl)-1H-indazol-4-yl)-8,9-dihydro-1OH-7-oxa-1,3,6,10-tetraazacyclohepta[de]naphthalen-10-yl)ethyl)pyridin-2-amine] | – | – | –
11 | 7.55 | 7.36 | < 7.00 | CC(c1cccnc1N)N1c2nc(OC[C@@]34CCCN3C[C@H](F)C4)nc3c(F)c(-c4cc5[nH]ncc5cc4C(F)(F)F)nc(c23)OC[C@@H]1C (stereo partly drawn) [Compound 325] | – | – | –
12 | 9.70 | 9.70 | 9.00 | [2H]C1([2H])Oc2nc(-c3cc(N)c(F)c(C)c3C(F)(F)F)c(F)c3nc(OC[C@@]45CCCN4C[C@H](F)C5)nc(c23)N(C(C)c2cccnc2N)C1([2H])[2H] (single isomer, unassigned) [Compound 199, 3-((R or S)-1-(5-(5-amino-4-fluoro-3-methyl-2-(trifluoromethyl)phenyl)-4-fluoro-2-(((2R,7aS)-2-fluorotetrahydro-1H-pyrrolizin-7a(5H)-yl)methoxy)-8,9-dihydro-10H-7-oxa-1,3,6,10-tetraazacyclohepta[de]naphthalen-10-yl-8,8,9,9-d4)ethyl)pyridin-2-amine] | – | – | –
13 | 9.40 | 9.00 | 8.40 | CC(c1cccnc1N)N1c2nc(OC[C@@]34CCCN3C[C@H](F)C4)nc3c(F)c(-c4c5c(cc6[nH]ncc46)CCC(F)(F)C5)nc(c23)OC[C@@H]1C (stereo partly drawn) [Compound 376] | – | – | –
14 | < 7.00 | < 7.00 | < 7.00 | Cc1c(F)c(N)cc(-c2nc3c4c(nc(OC[C@@]56CCCN5C[C@H](F)C6)nc4c2F)N(C2CC2)CCO3)c1C(F)(F)F [Compound 196] | – | – | –
